Reference: article PMC11124341, “4-Hydroxybenzoic Acid-Based Hydrazide–Hydrazones as Potent Growth Inhibition Agents of Laccase-Producing Phytopathogenic Fungi That Are Useful in the Protection of Oilseed Crops” (Molecules, 2024)
≈ marks a conversion by molar mass, not a printed value.

Legend:
[1] = system: Sclerotinia sclerotiorum strain FSc10; assay: In vitro antifungal activity, mycelial growth inhibition on PDA medium; assay type: cell-based; settings: for IC50: log-logistic model, 0–50 µg/mL range, read-out: IC50 against Sclerotinia sclerotiorum (Ss); for inhibition of growth at 50 µg/mL / fungal growth inhibition, S. sclerotiorum: screening at basal 50 µg/mL, PDA medium, mean ± SD of three determinations; for inhibition of growth at 50 µg/mL: read-out: fungal growth inhibition, S. sclerotiorum
Experimental: (§1) The cultures of Botrytis cinerea strain FBc05 and Sclerotinia sclerotiorum strain FSc10 were obtained from the collection of the Division of Plant Pathology and Mycology at the Department of Plant Protection of Wroclaw University of Environmental and Life Sciences (Poland). Cerrena unicolor (Bull.ex.Fr.) Murr, strain no. 139, originated from the culture collection of the Department of Biochemistry, University of Lublin (Poland). The stock cultures were maintained on potato dextrose agar at +4 °C and periodically transferred to a fresh medium.
(§2) Prior to the fungicidal activity assay of hydrazide–hydrazones 1–35, we considered ethanol and DMSO as potential dissolution media for tested compounds. […] Furthermore, a very important aspect of biological testing is the careful selection of organic solvents. These are typically used, e.g., methanol, ethanol, acetone, and DMSO, and may be highly toxic for microorganisms in even very low concentrations, such as 1% (v/v). Ethanol and DMSO with a final concentration between 0.1 and 1.0% (v/v) in a PDA medium were used and applied to evaluate the inhibition growth of B. cinerea, S. sclerotiorum, and C. unicolor (see Supplementary Materials). The following procedure was applied to the microorganism testing. The assays of fungi inhibition growth were performed at a basal concentration of 50 µg/mL for all compounds, and detailed experiments were extended for testing between 0 and 50 µg/mL (0, 6.25, 12.5, 25.0, and 50.0 µg/mL) for selected compounds. The tests were carried out on Petri dishes (diameter 60 mm) with PDA medium containing appropriate compound, co-solvent control, and hydrazide–hydrazone dissolved in co-solvent assay. A piece of mycelium with a 5 mm edge taken from the outer edge of the growing fungi on the PDA plate with co-solvent was transferred to a central part of the PDA plate with the examined compound. The plates thus inoculated were incubated at 22 °C in the dark for a time when the control plate containing only the co-solvent was covered entirely with the tested microorganism. For B. cinerea and S. sclerotiorum, the test took 3 days, and for C. unicolor, it took 7 days. Each assay was performed at least in triplicate. […] Model parameters c and e were estimated using the nonlinear least-squares method. Parameters d and b (with two exceptions) were fixed and assumed to be equal. Based on estimated parameters, the values of IC50 were determined. […] The IC50 values were calculated only in cases when the model predicted a decrease in growth rate by more than 50%.
(§3) In vitro antifungal activity
(§4) Prior to the fungicidal activity assay of hydrazide-hydrazones 1–35, we considered ethanol (EtOH) and DMSO as potential dissolution media for tested compounds.
(§5) EtOH and DMSO with a final concentration between 0.1–1.0% (v/v) in a PDA medium were applied to evaluate the inhibition growth of B. cinerea, S. sclerotiorum, and C. unicolor (see Table S3). The following procedure was applied to the microorganism testing with the hydrazide-hydrazones. The assays of fungi inhibition growth were performed at a basal concentration of 50 µg/mL for all compounds, and detailed experiments were extended for testing selected molecules 18, 19, 27, […]
(§6) Table S2. In vitro antifungal activity for DMSO and ethanol co-solvents.

[2] = system: Cerrena unicolor strain no. 139; assay: as above; assay type: cell-based; settings: for inhibition of growth at 50 µg/mL / fungal growth inhibition, C. unicolor: screening at basal 50 µg/mL, PDA medium, mean ± SD of three determinations; for inhibition of growth at 50 µg/mL: read-out: fungal growth inhibition, C. unicolor
Experimental: as §1, §2, §3, §4, §5, §6

[3] = system: Botrytis cinerea strain FBc05; assay: as above; assay type: cell-based; settings: for IC50: log-logistic model, 0–50 µg/mL range, read-out: IC50 against Botrytis cinerea (Bc); for inhibition of growth at 50 µg/mL / fungal growth inhibition, B. cinerea: screening at basal 50 µg/mL, PDA medium, mean ± SD of three determinations; for inhibition of growth at 50 µg/mL: read-out: fungal growth inhibition, B. cinerea
Experimental: as §1, §2, §3, §4, §5, §6

[4] = target: laccase from Trametes versicolor; settings: read-out: Laccase inhibition, Ki; cited from earlier work
[5] = Sclerotinia sclerotiorum, FSC10

CCO [EtOH, ethanol]
IC50 of co-solvent, S. sclerotiorum ([1]; co-solvent at 0.1–1.0% (v/v) in PDA medium): n.o.

CC1(C(=O)Nc2ccc(O)c(Cl)c2Cl)CCCCC1 [Fenhexamid, reference compound]
inhibition at 50 µg/mL ([2]; Cerrena unicolor, NO.139, fungicidal profile, 50 µg/mL, read-out: C. unicolor inhibition): 32.1% | inhibition of growth at 50 µg/mL ([2]; Cerrena unicolor, NO.139): 39.9 ± 0.7% | inhibition at 6.25 µg/mL ([3]; Botrytis cinerea, FBC05, fungicidal profile, 6.25 µg/mL, read-out: B. cinerea inhibition): 98.5% | inhibition at 50 µg/mL ([3]; Botrytis cinerea, FBC05, fungicidal profile, 50 µg/mL, read-out: B. cinerea inhibition): 100% | IC50 ([3]; Botrytis cinerea, FBC05): 0.1 µg/mL (≈ 0.331 µM) | inhibition of growth at 50 µg/mL ([3]; Botrytis cinerea, FBC05): 99.9 ± 0.4% | inhibition at 6.25 µg/mL ([1]; Sclerotinia sclerotiorum, FSC10, fungicidal profile, 6.25 µg/mL, read-out: S. sclerotiorum inhibition): 95.6% | inhibition at 12.5 µg/mL ([1]; Sclerotinia sclerotiorum, FSC10, fungicidal profile, 12.5 µg/mL, read-out: S. sclerotiorum inhibition): 96.3% | IC50 [1, 5]: 4.2 µg/mL (≈ 13.9 µM) | inhibition of growth at 50 µg/mL [1, 5]: 100 ± 0.3%

O=C(N/N=C/c1ccccc1)c1ccc(O)cc1 [compound 1]
Ki [4]: 1.47 mM | inhibition of growth at 50 µg/mL ([2]; Cerrena unicolor, NO.139): 10.6 ± 1.1% | inhibition of growth at 50 µg/mL ([3]; Botrytis cinerea, FBC05): 2.6 ± 0.2% | fungal growth inhibition, S. sclerotiorum [1]: n.o.

O=C(N/N=C/CCc1ccccc1)c1ccc(O)cc1 [compound 2]
Ki [4]: 1.92 mM | inhibition of growth at 50 µg/mL ([2]; Cerrena unicolor, NO.139): 18 ± 3.2% | fungal growth inhibition, B. cinerea [3]: n.o. | fungal growth inhibition, S. sclerotiorum [1]: n.o.

Cc1ccc(/C=N/NC(=O)c2ccc(O)cc2)cc1 [compound 3]
Ki [4]: 0.251 mM | fungal growth inhibition, C. unicolor [2]: n.o. | inhibition of growth at 50 µg/mL ([3]; Botrytis cinerea, FBC05): 3.3 ± 1.1% | fungal growth inhibition, S. sclerotiorum [1]: n.o.

CC(C)c1ccc(/C=N/NC(=O)c2ccc(O)cc2)cc1 [compound 4]
inhibition of growth at 50 µg/mL ([2]; Cerrena unicolor, NO.139): 20.9 ± 2.8% | inhibition of growth at 50 µg/mL ([3]; Botrytis cinerea, FBC05): 12 ± 2.6% | fungal growth inhibition, S. sclerotiorum [1]: n.o.

O=C(N/N=C/c1ccccc1S(=O)(=O)[O-])c1ccc(O)cc1.[Na+] [compound 5]
Ki [4]: ≥ 2.4 mM | inhibition of growth at 50 µg/mL ([2]; Cerrena unicolor, NO.139): 23.6 ± 4.2% | fungal growth inhibition, B. cinerea [3]: n.o. | fungal growth inhibition, S. sclerotiorum [1]: n.o.

O=C(N/N=C/c1ccccc1O)c1ccc(O)cc1 [compound 6]
Ki [4]: 0.674 mM | inhibition of growth at 50 µg/mL ([2]; Cerrena unicolor, NO.139): 14.7 ± 0.3% | inhibition of growth at 50 µg/mL ([3]; Botrytis cinerea, FBC05): 4.7 ± 1.1% | fungal growth inhibition, S. sclerotiorum [1]: n.o.

O=C(N/N=C/c1cccc(O)c1)c1ccc(O)cc1 [compound 7]
Ki [4]: 2.4 mM | inhibition of growth at 50 µg/mL ([2]; Cerrena unicolor, NO.139): 12.6 ± 4.1% | inhibition of growth at 50 µg/mL ([3]; Botrytis cinerea, FBC05): 3.7 ± 1.8% | fungal growth inhibition, S. sclerotiorum [1]: n.o.

O=C(N/N=C/c1ccc(O)cc1)c1ccc(O)cc1 [compound 8]
Ki [4]: 0.638 mM | inhibition of growth at 50 µg/mL ([2]; Cerrena unicolor, NO.139): 14.3 ± 1.7% | inhibition of growth at 50 µg/mL ([3]; Botrytis cinerea, FBC05): 4.2 ± 1.5% | fungal growth inhibition, S. sclerotiorum [1]: n.o.

COc1ccccc1/C=N/NC(=O)c1ccc(O)cc1 [compound 9]
Ki [4]: 1.06 mM | inhibition of growth at 50 µg/mL ([2]; Cerrena unicolor, NO.139): 22.3 ± 2.6% | inhibition of growth at 50 µg/mL ([3]; Botrytis cinerea, FBC05): 3.3 ± 1.2% | fungal growth inhibition, S. sclerotiorum [1]: n.o.

COc1cccc(/C=N/NC(=O)c2ccc(O)cc2)c1 [compound 10]
Ki [4]: 0.416 mM | fungal growth inhibition, C. unicolor [2]: n.o. | inhibition of growth at 50 µg/mL ([3]; Botrytis cinerea, FBC05): 3.9 ± 2.4% | fungal growth inhibition, S. sclerotiorum [1]: n.o.

COc1ccc(/C=N/NC(=O)c2ccc(O)cc2)cc1 [compound 11]
Ki [4]: ≥ 2.4 mM | inhibition of growth at 50 µg/mL ([2]; Cerrena unicolor, NO.139): 11.7 ± 3.5% | inhibition of growth at 50 µg/mL ([3]; Botrytis cinerea, FBC05): 4.4 ± 0.9% | fungal growth inhibition, S. sclerotiorum [1]: n.o.

O=C(N/N=C/c1ccc([N+](=O)[O-])o1)c1ccc(O)cc1 [compound 12, Nifuroxazide, reference compound]
inhibition of growth at 50 µg/mL ([2]; Cerrena unicolor, NO.139): 19.5 ± 2.8% | inhibition of growth at 50 µg/mL ([3]; Botrytis cinerea, FBC05): 3.3 ± 1.2% | fungal growth inhibition, B. cinerea [3]: no activity | fungal growth inhibition, S. sclerotiorum [1]: no activity and n.o.

O=C(N/N=C/c1cc(Br)ccc1O)c1ccc(O)cc1 [compound 14]
Ki [4]: ≥ 1 mM | inhibition of growth at 50 µg/mL ([2]; Cerrena unicolor, NO.139): 56.8 ± 8.4% | fungal growth inhibition, B. cinerea [3]: n.o. | fungal growth inhibition, S. sclerotiorum [1]: n.o.

COc1cccc(O)c1/C=N/NC(=O)c1ccc(O)cc1 [compound 15]
Ki [4]: ≥ 1 mM | inhibition of growth at 50 µg/mL ([2]; Cerrena unicolor, NO.139): 43.1 ± 3% | fungal growth inhibition, B. cinerea [3]: n.o. | fungal growth inhibition, S. sclerotiorum [1]: n.o.

COc1cccc(OC)c1/C=N/NC(=O)c1ccc(O)cc1 [compound 16]
Ki [4]: ≥ 1 mM | inhibition of growth at 50 µg/mL ([2]; Cerrena unicolor, NO.139): 32.1 ± 3.1% | fungal growth inhibition, B. cinerea [3]: n.o. | fungal growth inhibition, S. sclerotiorum [1]: n.o.

COc1ccc(C(=O)N/N=C/c2cccc(-c3ccccc3)c2O)cc1 [compound 20]
Ki [4]: ≥ 1 mM | inhibition of growth at 50 µg/mL ([2]; Cerrena unicolor, NO.139): 35.4 ± 2.4% | inhibition of growth at 50 µg/mL ([3]; Botrytis cinerea, FBC05): 3.3 ± 1.2% | fungal growth inhibition, S. sclerotiorum [1]: n.o.

O=C(N/N=C/c1ccc(O)cc1O)c1ccc(O)cc1 [compound 21]
Ki [4]: 0.939 mM | inhibition of growth at 50 µg/mL ([2]; Cerrena unicolor, NO.139): 30.1 ± 4.3% | fungal growth inhibition, B. cinerea [3]: n.o. | fungal growth inhibition, S. sclerotiorum [1]: n.o.

Cc1cc(CO)cc(/C=N/NC(=O)c2ccc(O)cc2)c1O [compound 24]
Ki [4]: ≥ 1 mM | inhibition of growth at 50 µg/mL ([2]; Cerrena unicolor, NO.139): 42 ± 2.1% | fungal growth inhibition, B. cinerea [3]: n.o. | fungal growth inhibition, S. sclerotiorum [1]: n.o.

Cc1ccc(C(C)C)c(O)c1/C=N/NC(=O)c1ccc(O)cc1 [compound 28]
Ki [4]: > 1 mM | inhibition of growth at 50 µg/mL ([2]; Cerrena unicolor, NO.139): 38.2 ± 2.3% | IC50 ([3]; Botrytis cinerea, FBC05): 52.7 µg/mL (≈ 169 µM) | inhibition of growth at 50 µg/mL ([3]; Botrytis cinerea, FBC05): 50.8 ± 2.6% | IC50 [1, 5]: 9.8 µg/mL (≈ 31.4 µM) | inhibition of growth at 50 µg/mL [1, 5]: 91.4 ± 2.2%

COc1cc(O)c(/C=N/NC(=O)c2ccc(O)cc2)c(OC)c1 [compound 29]
Ki [4]: ≥ 1 mM | inhibition of growth at 50 µg/mL ([2]; Cerrena unicolor, NO.139): 9.1 ± 1.9% | inhibition of growth at 50 µg/mL ([3]; Botrytis cinerea, FBC05): 8.1 ± 0.6% | fungal growth inhibition, S. sclerotiorum [1]: n.o.

COc1ccc(C(=O)N/N=C/c2cc(C)cc(C(C)(C)C)c2O)cc1 [compound 31]
Ki [4]: 0.0258 mM | inhibition of growth at 50 µg/mL ([2]; Cerrena unicolor, NO.139): 13.8 ± 3.9% | inhibition of growth at 50 µg/mL ([3]; Botrytis cinerea, FBC05): 2.1 ± 0.9% | fungal growth inhibition, S. sclerotiorum [1]: n.o.

Cc1cc(/C=N/NC(=O)c2ccccc2)c(O)c(C(C)(C)C)c1 [compound 33]
Ki [4]: 0.082 mM | inhibition of growth at 50 µg/mL ([2]; Cerrena unicolor, NO.139): 36.6 ± 1.2% | inhibition of growth at 50 µg/mL ([3]; Botrytis cinerea, FBC05): 3.9 ± 0.6% | fungal growth inhibition, S. sclerotiorum [1]: n.o.

Cc1cc(/C=N/NC(=O)c2cccnc2)c(O)c(C(C)(C)C)c1 [compound 34]
inhibition of growth at 50 µg/mL ([2]; Cerrena unicolor, NO.139): 29.6 ± 2.7% | inhibition of growth at 50 µg/mL ([3]; Botrytis cinerea, FBC05): 7.5 ± 0.6% | fungal growth inhibition, S. sclerotiorum [1]: n.o.
